{"source": "patent US20060019995A1", "about": "“2,3-dihydro-4(1H)-pyridone derivatives , method for production thereof and pharmaceutical composition comprising the same” (priority 2002, published 2006)", "key": {"[1]": {"tested_on": "social recognition (olfactory memory)", "assay": "Social recognition in the Wistar rat", "type": "in vivo", "settings": "intraperitoneal route, 3 mg/kg, second encounter after 2 hours", "from_the_text": "Initially described in 1982 by THOR and HOLLOWAY (J. Comp. Physiol., 1982, 96, 1000-1006), the social recognition test has subsequently been proposed by various authors (DANTZER et al., Psychopharmacology, 1987, 91, 363-368; PER10 et al., Psycho-pharmacology, 1989, 97, 262-268) for studying the mnemocognitive effects of new compounds. The test is based on the natural expression of the olfactory memory of the rat and its natural tendency to forget and allows evaluation of memorisation, by recognition of a young congeneric animal, by an adult rat. A young rat (21 days), taken at random, is placed for 5 minutes in the cage housing an adult rat. With the aid of a video device, the experimenter observes the social recognition behaviour of the adult rat and measures its overall duration. The young rat is then removed from the adult rat's cage and is placed in its own cage until the second introduction. The adult rat is then given the compound under test (intraperitoneal route) and, after 2 hours, is again brought into the presence (5 minutes) of the young rat. The social recognition behaviour is then observed again and its duration measured."}, "[2]": {"tested_on": "PBQ-induced abdominal cramps", "assay": "Abdominal contractions induced by phenyl-p-benzoquinone (PBQ) in the NMRI mouse", "type": "in vivo", "settings": "IP, 20 mg/kg, PBQ at t=30 min, cramps counted t=35 to 45 min", "experimental": "Intraperitoneal administration of an alcoholic solution of PBQ causes abdominal cramps in the mouse (SIEGMUND et al., Proc. Soc. Exp. Biol., 1957, 95, 729-731). The cramps are characterised by repeated contractions of the abdominal musculature, accompanied by extension of the hind limbs. Most analgesics antagonise these abdominal cramps (COLLIER et al., Brit. J. Pharmacol. Chem., 1968, 32, 295-310). At t=0 min., the animals are weighed and the compound being studied is administered by the IP route. A group of control animals is given the solvent used for the compound. At t=30 min., an alcoholic solution of PBQ (0.2%) is administered by the IP route in a volume of 0.25 ml/mouse. Immediately after administration of the PBQ, the animals are placed in cylinders of plexiglass (L=19.5 cm; I.D.=5 cm). From t=35 min. to t=45 min., the animals' reaction is observed and the experimenter notes the total number of abdominal cramps per animal."}}, "data": [{"molecule": "CC1CC(=O)C=C(c2cccs2)N1C(=O)OC(C)(C)C", "note": "(stereo not shown) [Example 1, Tert-butyl 2-methyl-4-oxo-6-(2-thienyl)-3,4-dihydro-1(2H)-pyridinecarboxylate]", "values": [{"measurement": "T2 − T1 (s) ± sem, difference between recognition times of the 2 encounters", "setting": "[1]", "value": "-17.4 ± 2.5", "unit": "s"}]}, {"molecule": "CC1CC(=O)C=C(c2cccs2)N1", "note": "(stereo not shown) [Example 2, 2-Methyl-6-(2-thienyl)-2,3-dihydro-4(1H)-pyridone]", "values": [{"measurement": "Inhibition (%) of the number of abdominal cramps measured in the control animals", "setting": "[2]", "value": 48, "unit": "%"}]}, {"molecule": "CC1CC(=O)C=C(c2ccccc2)N1C(=O)OC(C)(C)C", "note": "(stereo not shown) [Example 3, Tert-butyl 2-methyl-4-oxo-6-phenyl-3,4-dihydro-1(2H)-pyridine-carboxylate]", "values": [{"measurement": "T2 − T1 (s) ± sem, difference between recognition times of the 2 encounters", "setting": "[1]", "value": "-25.3 ± 7.1", "unit": "s"}, {"measurement": "Inhibition (%) of the number of abdominal cramps measured in the control animals", "setting": "[2]", "value": 59, "unit": "%"}]}, {"molecule": "CC1CC(=O)C=C(c2cccc(Cl)c2)N1", "note": "(stereo not shown) [Example 6, 6-(3-Chlorophenyl)-2-methyl-2,3-dihydro-4(1H)-pyridone]", "values": [{"measurement": "T2 − T1 (s) ± sem, difference between recognition times of the 2 encounters", "setting": "[1]", "value": "-21.4 ± 5.1", "unit": "s"}, {"measurement": "Inhibition (%) of the number of abdominal cramps measured in the control animals", "setting": "[2]", "value": 48, "unit": "%"}]}, {"molecule": "CC1CC(=O)C=C(c2ccc(Cl)nc2)N1", "note": "(stereo not shown) [Example 8, 6-(6-Chloro-3-pyridyl)-2-methyl-2,3-dihydro-4(1H)-pyridone]", "values": [{"measurement": "T2 − T1 (s) ± sem, difference between recognition times of the 2 encounters", "setting": "[1]", "value": "-17.2 ± 4.6", "unit": "s"}]}]}
